Test results published in patent US20070248657A1, “Multi-compartment transdermal pain control device” (priority 2006, published 2007).
Where two headings read alike, the source gives them in different places.

Assays:
[1] = human

SMILES	flux through human cadaver epidermis (clinical significance) (pH 5.6)	flux through human cadaver epidermis (clinical significance) (pH 7.3)	flux through human cadaver epidermis (clinical significance) (pH 8.6)	Cumulative Flux ([1]; 0 h)	Cumulative Flux ([1]; 3 h)	Cumulative Flux ([1]; 6 h)	Cumulative Flux ([1]; 9 h)	Cumulative Flux ([1]; 24 h)	Cumulative Flux ([1]; 48 h)	Cumulative Flux ([1]; 72 h)	flux through human cadaver epidermis (clinical significance) (human, pH 8.6)
O=C(c1ccccc1)c1ccc2n1CCC2C(=O)O (stereo not shown) [Ketorolac, ketorolac tromethamine]	clinically significant	decreased to a clinically insignificant level	remains clinically insignificant	0 μg/cm^2	24 μg/cm^2	7 μg/cm^2	11 μg/cm^2	100 μg/cm^2	412 μg/cm^2	726 μg/cm^2	
COc1ccc2c(c1)[C@]13CCCC[C@@H]1[C@H](C2)N(C)CC3 [Dextromethorphan, dextromethorphan]	clinically insignificant	remains clinically insignificant									higher than at a pH of 7.3
